For assay [1], the system named is SKBR3 (PI3Kα-Wild Type) cell line. Briefly: HTRF phospho-AKT(S473) cell assay in SKBR3 cells. It is filed as cell-based, human. Put shortly:
(§1)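 pAKT(S473) in lysates read by HTRF after a 2 h, 37 °C compound exposure (12-point 1:3 series, max 0.5% DMSO). SKBR3 (wild type, top 10 μM) received 70 ng/ml PDGF-BB during the final 15 min; T47D (H1047R, top 5 μM) was unstimulated. IC50 values derived from the dose-response.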
For orientation: TR-FRET usually uses a lanthanide donor and a delayed reading to cut background.

Assay [2] deals with T47D (PI3Kα-H1047R) cell line. In words: HTRF phospho-AKT(S473) cell assay in T47D cells. The format is cell-based, human. The method, boiled down: as §1
Setting [3] is: Homo sapiens, SK-BR-3; HTRF phospho-AKT(S473), SKBR3 (PI3Kα-Wild Type) cells, 2 hours compound incubation, PDGF-BB stimulated.
[4] abbreviates: Homo sapiens; HTRF phospho-AKT(S473), T47D (PI3Kα-H1047R) cells, 2 hours compound incubation.
Where [5] appears, read: Homo sapiens, SK-BR-3; SKBR3 (PI3Kα-Wild Type) cells, HTRF phospho-AKT(S473), 2 hours compound incubation, PDGF-BB stimulated.
The mark [6] stands for this setting: Homo sapiens; T47D (PI3Kα-H1047R) cells, HTRF phospho-AKT(S473), 2 hours compound incubation.

This is an account of results in patent US12281122B1, “PI3K inhibitors” (Cogent Biosciences, Inc., priority 2023, dated 2025).

For orientation: IC50 means the concentration that inhibits the measured activity by half. Low values mean higher potency, high ones lower potency.

For the compound `COc1c([C@H]2[C@@H]3CN(c4nc5c([C@@H](C)Nc6ccc(Cl)nc6C(=O)NS(C)(=O)=O)cc(C)cc5c(=O)n4C)C[C@@H]32)cnn1C` [Compound 461, 6-chloro-3-(((R)-1-(2-((1R,5S,6S)-6-(5-methoxy-1-methyl-1H-pyrazol-4-yl)-3-azabicyclo[3.1.0]hexan-3-yl)-3,6-dimethyl-4-oxo-3,4-dihydroquinazolin-8-yl)ethyl)amino)-N-(methylsulfonyl) picolinamide], the IC50 in assay [1] (setting [3]) was 1 to 5 µM; in assay [2] (setting [4]), less than 250 nM.

Consider `Cc1cc([C@@H](C)Nc2ccc(Cl)nc2C(=O)NS(C)(=O)=O)c2nc(N3CCC(c4ccn(C(C)C)n4)CC3)n(C)c(=O)c2c1` [Compound 249, (R)-6-chloro-3-((1-(2-(4-(1-isopropyl-1H-pyrazol-3-yl)piperidin-1-yl)-3,6-dimethyl-4-oxo-3,4-dihydroquinazolin-8-yl)ethyl)amino)-N-(methylsulfonyl) picolinamide], for which the values for the IC50 in assay [1] (setting [5]) and in assay [2] (setting [6]) were 1 to 5 µM and less than 250 nM, respectively.

Regarding `Cc1cc([C@@H](C)Nc2ccc(Cl)nc2C(=O)NS(C)(=O)=O)c2nc(N3C[C@@H]4C(c5cnc(C(F)F)nc5)[C@@H]4C3)n(C)c(=O)c2c1` (stereo partly drawn) [Compound 536, 6-chloro-3-(((1R)-1-(2-((1R,5S)-6-(2-(difluoromethyl)pyrimidin-5-yl)-3-azabicyclo[3.1.0]hexan-3-yl)-3,6-dimethyl-4-oxo-3,4-dihydroquinazolin-8-yl)ethyl)amino)-N-(methylsulfonyl) picolinamide], the IC50 in assay [1] (setting [3]) is 1 to 5 µM; in assay [2] (setting [4]), less than 250 nM.

Consider `Cc1cc([C@@H](C)Nc2ccc(Cl)nc2C(=O)NS(C)(=O)=O)c2nc(N3CCC(c4c(F)cnn4C(F)F)CC3)n(C)c(=O)c2c1` [Compound 464, (R)-6-chloro-3-((1-(2-(4-(1-(difluoromethyl)-4-fluoro-1H-pyrazol-5-yl)piperidin-1-yl)-3,6-dimethyl-4-oxo-3,4-dihydroquinazolin-8-yl)ethyl)amino)-N-(methylsulfonyl) picolinamide], for which the IC50 in assay [1] (setting [3]) is no less than 5 µM; in assay [2] (setting [4]), 250 to 500 nM.

In the case of `Cc1cc([C@@H](C)Nc2ccc(Cl)nc2C(=O)NS(C)(=O)=O)c2nc(N3CCC(c4nn(C5CC5)cc4F)CC3)n(C)c(=O)c2c1` [Compound 505, (R)-6-chloro-3-((1-(2-(4-(1-cyclopropyl-4-fluoro-1H-pyrazol-3-yl)piperidin-1-yl)-3,6-dimethyl-4-oxo-3,4-dihydroquinazolin-8-yl)ethyl)amino)-N-(methylsulfonyl) picolinamide], the IC50 is no less than 5 µM in assay [1] (setting [3]) and 250 to 500 nM in assay [2] (setting [4]).

As for `Cc1cc([C@@H](C)Nc2ccc(Cl)nc2C(=O)NS(C)(=O)=O)c2nc(N3CCN(c4ncccc4F)CC3)n(C)c(=O)c2c1` [Compound 662, (R)-6-chloro-3-((1-(2-(4-(3-fluoropyridin-2-yl)piperazin-1-yl)-3,6-dimethyl-4-oxo-3,4-dihydroquinazolin-8-yl)ethyl)amino)-N-(methylsulfonyl) picolinamide], the IC50 in assay [1] (setting [3]) was no less than 5 µM; in assay [2] (setting [4]) it was 250 to 500 nM.

Consider `COc1nc(C)cc(N2CCN(c3nc4c([C@@H](C)Nc5ccc(Cl)nc5C(=O)NS(C)(=O)=O)cc(C)cc4c(=O)n3C)CC2)n1` [Compound 729, (R)-6-chloro-3-((1-(2-(4-(2-methoxy-6-methylpyrimidin-4-yl)piperazin-1-yl)-3,6-dimethyl-4-oxo-3,4-dihydroquinazolin-8-yl)ethyl)amino)-N-(methylsulfonyl) picolinamide], for which the IC50 was in the range of 1 to 5 µM in assay [1] (setting [3]) and 250 to 500 nM in assay [2] (setting [4]).

For `COc1cccnc1-n1cc2c(n1)CN(c1nc3c([C@@H](C)Nc4ccc(Cl)nc4C(=O)NS(C)(=O)=O)cc(C)cc3c(=O)n1C)C2` [Compound 327, (R)-6-chloro-3-((1-(2-(2-(3-methoxypyridin-2-yl)-2,6-dihydropyrrolo[3,4-c]pyrazol-5(4H)-yl)-3,6-dimethyl-4-oxo-3,4-dihydroquinazolin-8-yl)ethyl)amino)-N-(methylsulfonyl) picolinamide], the IC50 was 1 to 5 µM in assay [1] (setting [5]) and 250 to 500 nM in assay [2] (setting [6]).

For the compound `Cc1cc([C@@H](C)Nc2ccc(Cl)nc2C(=O)NS(C)(=O)=O)c2nc(N3CCC[C@H](c4nccc(C)n4)C3)n(C)c(=O)c2c1` (relative stereo) [Compound 648, 6-chloro-3-(((R)-1-(3,6-dimethyl-2-((R*)-3-(4-methylpyrimidin-2-yl)piperidin-1-yl)-4-oxo-3,4-dihydroquinazolin-8-yl)ethyl)amino)-N-(methylsulfonyl) picolinamide], the values for the IC50 in assay [1] (setting [3]) and in assay [2] (setting [4]) were no less than 5 µM and 1000 to 5000 nM, respectively.

As for `Cc1cc([C@@H](C)Nc2ccc(Cl)nc2C(=O)NS(C)(=O)=O)c2nc(-c3ccc(-c4noc(C)n4)nc3)n(C)c(=O)c2c1` [Compound 303, (R)-6-chloro-3-((1-(3,6-dimethyl-2-(6-(5-methyl-1,2,4-oxadiazol-3-yl)pyridin-3-yl)-4-oxo-3,4-dihydroquinazolin-8-yl)ethyl)amino)-N-(methylsulfonyl) picolinamide], the IC50 was in the range of 1 to 5 µM in assay [1] (setting [5]) and 250 to 500 nM in assay [2] (setting [6]).

As for `Cc1cc([C@@H](C)Nc2ccc(Cl)nc2C(=O)NS(C)(=O)=O)c2nc(C3CCN(c4cnn(C)c4)CC3)n(C)c(=O)c2c1` [Compound 227, (R)-6-chloro-3-((1-(3,6-dimethyl-2-(1-(1-methyl-1H-pyrazol-4-yl)piperidin-4-yl)-4-oxo-3,4-dihydroquinazolin-8-yl)ethyl)amino)-N-(methylsulfonyl) picolinamide], the figures for the half-maximal inhibitory concentration (IC50) in assay [1] (setting [5]) and in assay [2] (setting [6]) were 1 to 5 µM and less than 250 nM, respectively.

Take `Cc1cc([C@@H](C)Nc2ccc(Cl)nc2C(=O)NS(C)(=O)=O)c2nc(-c3ccc(OC4CCN(CC(F)F)CC4)nc3)n(C)c(=O)c2c1` [Compound 815, (R)-6-chloro-3-((1-(2-(6-((1-(2,2-difluoroethyl)piperidin-4-yl)oxy)pyridin-3-yl)-3,6-dimethyl-4-oxo-3,4-dihydroquinazolin-8-yl)ethyl)amino)-N-(methylsulfonyl) picolinamide]: the IC50 was no less than 5 µM in assay [1] (setting [3]) and 250 to 500 nM in assay [2] (setting [4]).

In the case of `Cc1cc([C@@H](C)Nc2ccc(Cl)nc2C(=O)NS(C)(=O)=O)c2nc(N3Cc4cn(-c5ccccc5)nc4C3)n(C)c(=O)c2c1` [Compound 147, (R)-6-chloro-3-((1-(3,6-dimethyl-4-oxo-2-(2-phenyl-2,6-dihydropyrrolo[3,4-c]pyrazol-5(4H)-yl)-3,4-dihydroquinazolin-8-yl)ethyl)amino)-N-(methylsulfonyl) picolinamide], the IC50 in assay [1] (setting [5]) is no less than 5 µM; in assay [2] (setting [6]), 250 to 500 nM.

As for `Cc1cc([C@@H](C)Nc2ccc(Cl)nc2C(=O)NS(C)(=O)=O)c2nc(N3Cc4cn(CC(F)(F)F)nc4C3)n(C3CC3)c(=O)c2c1` [Compound 735, (R)-6-chloro-3-((1-(3-cyclopropyl-6-methyl-4-oxo-2-(2-(2,2,2-trifluoroethyl)-2,6-dihydropyrrolo[3,4-c]pyrazol-5(4H)-yl)-3,4-dihydroquinazolin-8-yl)ethyl)amino)-N-(methylsulfonyl) picolinamide], the figures for the IC50 in assay [1] (setting [3]) and in assay [2] (setting [4]) were 1 to 5 µM and 250 to 500 nM, respectively.

As for `CO[C@H]1CCC2(CCN(c3nc4c([C@@H](C)Nc5ccc(Cl)nc5C(=O)NS(C)(=O)=O)cc(C)cc4c(=O)n3C)CC2)OC1` (mixture of isomers) [Compound 721, 6-chloro-3-(((R)-1-(2-((RS)-3-methoxy-1-oxa-9-azaspiro[5.5]undecan-9-yl)-3,6-dimethyl-4-oxo-3,4-dihydroquinazolin-8-yl)ethyl)amino)-N-(methylsulfonyl) picolinamide], the IC50 in assay [1] (setting [3]) is no less than 5 µM; in assay [2] (setting [4]), 250 to 500 nM.

As to `Cc1cc([C@@H](C)Nc2ccc(Cl)nc2C(=O)NS(C)(=O)=O)c2nc(N3C[C@@H]4[C@H](C3)[C@H]4c3ccc(C#N)cn3)n(C)c(=O)c2c1` [Compound 392, 6-chloro-3-(((R)-1-(2-((1R,5S,6R)-6-(5-cyanopyridin-2-yl)-3-azabicyclo[3.1.0]hexan-3-yl)-3,6-dimethyl-4-oxo-3,4-dihydroquinazolin-8-yl)ethyl)amino)-N-(methylsulfonyl) picolinamide], the results for the concentration for half-maximal inhibition (IC50) in assay [1] (setting [5]) and in assay [2] (setting [6]) were 1 to 5 µM and 250 to 500 nM, respectively.

As to `Cc1cc([C@@H](C)Nc2ccc(Cl)nc2C(=O)NS(C)(=O)=O)c2nc(N3CC[C@H](Oc4ccc(C)nn4)C3)n(C)c(=O)c2c1` [Compound 527, 6-chloro-3-(((R)-1-(3,6-dimethyl-2-((S)-3-((6-methylpyridazin-3-yl)oxy)pyrrolidin-1-yl)-4-oxo-3,4-dihydroquinazolin-8-yl)ethyl)amino)-N-(methylsulfonyl) picolinamide], the IC50 in assay [1] (setting [3]) was 1 to 5 µM; in assay [2] (setting [4]), less than 250 nM.

For `CC(=O)N1CC2CCC(C1)N2c1ccc(-c2nc3c([C@@H](C)Nc4ccc(Cl)nc4C(=O)NS(C)(=O)=O)cc(C)cc3c(=O)n2C)cc1F` [Compound 801, 3-(((1R)-1-(2-(4-(3-acetyl-3,8-diazabicyclo[3.2.1]octan-8-yl)-3-fluorophenyl)-3,6-dimethyl-4-oxo-3,4-dihydroquinazolin-8-yl)ethyl)amino)-6-chloro-N-(methylsulfonyl) picolinamide], the IC50 in assay [1] (setting [3]) was no less than 5 µM; in assay [2] (setting [4]), less than 250 nM.

On to `Cc1cc([C@@H](C)Nc2ccc(Cl)nc2C(=O)NS(C)(=O)=O)c2nc(N3C[C@H]4C[C@@]4(c4cnc(C)nc4)C3)n(C)c(=O)c2c1` (relative stereo) [Compound 751, 6-chloro-3-(((R)-1-(3,6-dimethyl-2-((1R*,5S*)-1-(2-methylpyrimidin-5-yl)-3-azabicyclo[3.1.0]hexan-3-yl)-4-oxo-3,4-dihydroquinazolin-8-yl)ethyl)amino)-N-(methylsulfonyl) picolinamide], for which the IC50 is no less than 5 µM in assay [1] (setting [3]) and 250 to 500 nM in assay [2] (setting [4]).
